The target in one data set is Ory c 3 (Oryctolagus cuniculus, UniProt Q9GK63+Q9GK67). The experiment in a line: Fluorochrome binding to Ory c 3 (emission spectra and titration). Further details: species or system rabbit. Particulars: 5 μM Ory c 3. Here is the method:
(§1) Stock solutions were prepared at a concentration of 10 mM in 100% ethanol for the fluorochromes 1-aminoanthracene (1-AMA), 8-anilino-1-naphthalensulfonic acid (1,8-ANS) and for all ligands, and in 100% methanol for n-phenyl-1-naphthylamine (1-NPN), respectively. Iron catecholate ligands (siderophores) were prepared as previously described ([46]). Fluorochrome-protein complexes were analyzed at an equimolar concentration of 5 μM in PBS with 5% ethanol in a volume of 100 μL per well in black 96-well non-binding microplates (Greiner Bio-One GmbH, Frickenhausen, Germany). Solutions containing only protein or the respective fluorescent probe in PBS with 5% ethanol served as controls. Fluorochrome-protein complexes were incubated with orbital shaking for 10 min at 500 rpm at room temperature (RT) before measurement using the fluorescence reader TECAN Infinite 200 Pro (Tecan Trading AG, Switzerland). Excitation wavelengths were fixed at 380 nm for 1-AMA and 1,8-ANS, and 337 nm for 1-NPN. Fluorescence emission spectra were recorded in 5 nm steps between 420 and 560 nm for 1-AMA and 1,8-ANS and between 380 and 500 nm for 1-NPN. The establishment of fluorescent quenching assay parameters for each allergen is explained in the results Section Fluorescence-quenching assay set up. Binding affinities were analyzed by non-linear regression in GraphPad Prism Version 9.3.1 (GraphPad Software, LLC). […]

A further data set deals with T1, Can f 6 (Canis lupus familiaris, UniProt H2B3G5).
T1 construct: polyhistidine tag (C); made in house; host or cells: E. coli Rosetta-gami 2
T1 sequence (H2B3G5 16-190): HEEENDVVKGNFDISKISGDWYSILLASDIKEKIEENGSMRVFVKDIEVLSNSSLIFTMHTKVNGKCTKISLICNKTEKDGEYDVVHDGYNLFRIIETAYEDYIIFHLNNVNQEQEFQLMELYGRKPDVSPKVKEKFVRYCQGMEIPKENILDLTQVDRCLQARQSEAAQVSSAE
The experiment in a line: Fluorochrome binding to Can f 6 (emission spectra and titration). On the set-up: species or system dog. Particulars: 5 μM Can f 6 with 5 μM fluorochrome. Here is the method:
(§2) Stock solutions were prepared at a concentration of 10 mM in 100% ethanol for the fluorochromes 1-aminoanthracene (1-AMA), 8-anilino-1-naphthalensulfonic acid (1,8-ANS) and for all ligands, and in 100% methanol for n-phenyl-1-naphthylamine (1-NPN), respectively. Iron catecholate ligands (siderophores) were prepared as previously described ([46]). Fluorochrome-protein complexes were analyzed at an equimolar concentration of 5 μM in PBS with 5% ethanol in a volume of 100 μL per well in black 96-well non-binding microplates (Greiner Bio-One GmbH, Frickenhausen, Germany). Solutions containing only protein or the respective fluorescent probe in PBS with 5% ethanol served as controls. Fluorochrome-protein complexes were incubated with orbital shaking for 10 min at 500 rpm at room temperature (RT) before measurement using the fluorescence reader TECAN Infinite 200 Pro (Tecan Trading AG, Switzerland). Excitation wavelengths were fixed at 380 nm for 1-AMA and 1,8-ANS, and 337 nm for 1-NPN. Fluorescence emission spectra were recorded in 5 nm steps between 420 and 560 nm for 1-AMA and 1,8-ANS and between 380 and 500 nm for 1-NPN. The establishment of fluorescent quenching assay parameters for each allergen is explained in the results Section Fluorescence-quenching assay set up. Binding affinities were analyzed by non-linear regression in GraphPad Prism Version 9.3.1 (GraphPad Software, LLC). For the ligand competition assays, ligands were added to fluorochrome-allergen complexes with a final buffer composition of 5% ethanol in PBS in a volume of 100 μL and incubated for 30 min at 500 rpm at RT and further equilibrated for another 30 min without shaking before fluorescence measurement.
(§3) We established four specific parameters for each allergen to set up a fluorescence quenching assay for screening a large array of potential ligands: (i) a compatible fluorochrome, (ii) the optimal emission wavelength to analyze the fluorescence intensities of the fluorochrome-allergen complex, (iii) the binding affinities of the fluorochrome-allergen complex (Kd values) and (iv) optimal fluorochrome concentrations (EC50 values).
(§4) For each allergen, we identified a suitable fluorescence probe by adding equimolar concentrations of either 1-AMA or 1,8-ANS to the recombinant proteins. […] 1-AMA was chosen for the guinea pig lipocalin Cav p 1 isoallergens, rabbit lipocalin Ory c 2, and rabbit secretoglobin Ory c 3. Fluorescence intensities increased 20–60-fold upon binding. While the emission maxima shifted from 565 to 485 nm for lipocalin fluorochrome-allergen pairs, the blue shift was less pronounced for the Ory c 3 secretoglobin-1-AMA complex to 505 nm (Figure 4B). […] Respective Kd were calculated after background subtraction (Figure 4B). As ethanol gave a high background with 1-NPN, these experiments were carried out with methanol to […] the signal-to-noise-ratio.
(§5) We evaluated the binding affinities of the fluorochromes to the allergens by dose-dependent titration curves. Increasing fluorochrome concentrations were added to a fixed protein concentration of 5 μM until saturation (Figure 5). Fluorescence intensities were recorded at specific emission maxima for each fluorochrome-allergen complex, determined using the emission spectra shown in Figure 4. We analyzed the specific binding of fluorochrome-allergen complexes by non-linear regression and calculated equilibrium dissociation constants (Kd) and EC50 values (Table 2). EC50 values are equal to fluorochome concentrations in which half of the allergen binding sites are saturated and these concentrations were used in subsequent ligand competition assays. We chose a one-site specific binding model for all allergens, except for human LCN1, where multiple binding site analysis emerged as the model of best fit and two Kd values were calculated. Evidence for internal and external binding sites for 1,8-ANS and LCN1 were already reported ([58]).

A further data set concerns the target Cav p 1.0201 (Cavia porcellus, UniProt A0A484HRI4). The experiment in a line: Fluorochrome binding to Cav p 1.0201 (emission spectra and titration). On the set-up: species or system guinea pig. Particulars: 5 μM Cav p 1.0201. Here is the method:
as §1

For the next data set, the target named is Cav p 1.0101 (Cavia porcellus, UniProt A0A484HM70, S19A). The experiment in a line: Fluorochrome binding to Cav p 1.0101 (emission spectra and titration). On the set-up: species or system guinea pig. Particulars: 5 μM Cav p 1.0101. On the procedure:
as §1

In a further data set the target is Ory c 2. The experiment in a line: Fluorochrome binding to Ory c 2 (emission spectra and titration). On the set-up: species or system rabbit. On the procedure:
as §2, with “measurement. […]” for “measurement.”
For each allergen, we identified a suitable fluorescence probe by adding equimolar concentrations of either 1-AMA or 1,8-ANS to the recombinant proteins. […] Fluorescence intensities increased 20–60-fold upon binding. […] Respective Kd were calculated after background subtraction (Figure 4B). […]
We evaluated the binding affinities of the fluorochromes to the allergens by dose-dependent titration curves. […]

The next data set deals with T2, Fel d 1 (Felis catus, UniProt P30438+P30440).
T2 construct: polyhistidine tag (C); made in house; host or cells: E. coli Rosetta-gami 2
T2 sequence (P30438+P30440 with tags, fused parts or gaps): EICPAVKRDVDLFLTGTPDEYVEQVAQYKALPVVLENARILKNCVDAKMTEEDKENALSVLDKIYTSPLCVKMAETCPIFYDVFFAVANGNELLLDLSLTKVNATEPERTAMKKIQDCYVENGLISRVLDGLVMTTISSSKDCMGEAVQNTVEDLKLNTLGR
The experiment in a line: Fluorochrome binding to Fel d 1 (emission spectra and titration). Conditions: 5 μM Fel d 1 with 5 μM fluorochrome. Further details: species or system cat. On the procedure:
as §2, §3, §4, §5

The target in the next data set is T3, Fel d 4 (Felis catus, UniProt Q5VFH6).
T3 construct: polyhistidine tag (C); made in house; host or cells: E. coli Rosetta-gami 2
T3 sequence (Q5VFH6 16-186): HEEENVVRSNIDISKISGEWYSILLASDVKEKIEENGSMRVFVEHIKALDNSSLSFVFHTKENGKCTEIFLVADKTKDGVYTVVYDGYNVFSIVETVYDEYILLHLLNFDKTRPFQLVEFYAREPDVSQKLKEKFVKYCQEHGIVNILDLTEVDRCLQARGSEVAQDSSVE
The experiment in a line: Fluorochrome binding to Fel d 4 (emission spectra and titration). On the set-up: species or system cat. Conditions: 5 μM Fel d 4 with 5 μM fluorochrome. On the procedure:
as §2, §3, §4, §5

Data set [1] is described as follows: Thermal stability by circular dichroism spectroscopy with temperature ramping. Particulars: temperature ramping 20–95°C, 10 μmol/L protein. It counts as physicochemical. On the procedure: Secondary protein structure formation and thermal stability of the recombinant proteins were determined by circular dichroism (CD) spectroscopy. Recombinant proteins were diluted with ultrapure water to a concentration of 10 μmol/L in a volume of 300 μL to measure their CD spectra using the Chirascan CD spectrometer (Applied Photophysics). Far-ultraviolet CD spectra were recorded at 180–260 nm (0.8 nm bandwidth, 0.4 s interval, 3 repeats) in a cuvette of 0.1 cm path length. Thermal sensitivity was assessed by ramping temperatures (20–95°C) with an internal temperature probe and continuous CD-signal measurements (ramping rate 0.82°C per minute, no repeats). After 10 min at 95°C another CD spectrum was recorded with 3 repeats, then the temperature was decreased back to 20°C for a final scan with 3 repeats to analyze the refolding capacity. The read-out was converted with respective protein details, such as molecular weight and number of amino acids, into degrees^*cm2^*dmol−1. Chirascan Global 3 Analysis Software (Applied Photophysics) and DichroWeb online server ([36]) with solutions from the CDSSTR method and reference data set 7 ([37]) were used to analyze and interpret CD spectra, measured as a function of temperature.
(In general: Circular dichroism is the unequal absorption of left and right circularly polarised light.)

Where [2] appears, read: one-site specific binding, read-out: Fluorochrome dissociation constant Kd.
Setting [3] is: read-out: EC50 fluorochrome concentration.

“And” between values parts separate entries of the source, which are not always exact repeats. Equal values may be shown once.

The record followed here is article PMC9385959, “Mammalian derived lipocalin and secretoglobin respiratory allergens strongly bind ligands with potentially immune modulating properties” (Frontiers in Allergy, 2022).

Chain of Cav p 1.0101 (A0A484HM70 entry or part of it S19A): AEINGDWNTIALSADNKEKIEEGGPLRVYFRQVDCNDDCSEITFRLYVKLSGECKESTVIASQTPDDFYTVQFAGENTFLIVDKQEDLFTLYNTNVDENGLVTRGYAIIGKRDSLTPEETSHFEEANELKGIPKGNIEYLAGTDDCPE
Chain of Cav p 1.0201 (A0A484HRI4 entry or part of it): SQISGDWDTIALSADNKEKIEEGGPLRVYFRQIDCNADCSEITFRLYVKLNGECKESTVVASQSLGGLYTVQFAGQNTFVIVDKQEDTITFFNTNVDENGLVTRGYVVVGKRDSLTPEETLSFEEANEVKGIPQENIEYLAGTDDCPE
Chain of Ory c 3 (Q9GK67 entry or part of it): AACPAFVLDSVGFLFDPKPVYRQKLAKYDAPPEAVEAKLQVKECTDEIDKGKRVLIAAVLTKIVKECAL
Chain of Ory c 3 (Q9GK63 entry or part of it): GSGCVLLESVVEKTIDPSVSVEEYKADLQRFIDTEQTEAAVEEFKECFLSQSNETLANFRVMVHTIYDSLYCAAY

For `Nc1cccc2cc3ccccc3cc12` [1-AMA, 1-aminoanthracene], the Kd (as a rule, the constant that tells how readily two partners part at equilibrium) was 9 µM on Ory c 3 (setting [2]); 13.9 µM at Cav p 1.0201 (setting [2]); 6.57 µM and 6.6 µM at Cav p 1.0101 (setting [2]); 5.7 µM at Ory c 2 (5 μM Ory c 2, one-site specific binding, read-out: Fluorochrome dissociation constant Kd). Also, the EC50 at Ory c 3 (setting [3]) was 6.9 µM; on Cav p 1.0201 (setting [3]) it was 9.2 µM; on Cav p 1.0101 (setting [3]) it was 4.95 µM and 5 µM; at Ory c 2 (5 μM Ory c 2, read-out: EC50 fluorochrome concentration) it was 4.2 µM. Besides, the “Increase of fluorescence intensity upon binding” value is on record as “neither reacted” on Can f 6; 20–60 fold in the data set with Ory c 2 (5 μM Ory c 2 with 5 μM fluorochrome, range stated for four allergens together); “negligible interactions” at Fel d 1; “neither reacted” at Fel d 4.

For the compound “LCN1: recombinant human lipocalin-1 (tear lipocalin, von Ebner's gland protein), non-allergenic control, produced in E. coli”, the Melting point in data set [1] stood at 74.8 ± 0.2 C°.
